# Source: US11457628B2, “Substituted pyrimidine compound and preparation method and use thereof” (SHENYANG SINOCHEM AGROCHEMICALS R&D CO., LTD., priority 2017, dated 2022)
# Experiments:
# rice blast = test: microbe, parasite or virus in culture; assay type: cell-based; details: Pyricularia oryzae, 24 h, read-out: inhibition activity for rice blast
# cucumber downy mildew = test: in vivo protective activity, pot determination, cucumber downy mildew
# green peach aphid = test: activity against the green peach aphid, airbrush spray method; assay type: in vivo; details: 100 mg/L, after 48 hours
# wheat powdery mildew = test: in vivo protective activity, pot determination, wheat powdery mildew
# corn rust = test: in vivo protective activity, pot determination, corn rust
# cucumber anthrax = assay type: in vivo; details: dose 400 ppm
# Tetranychus cinnabarinus = test: activity against Tetranychus cinnabarinus, airbrush spray method; details: 600 mg/L, after 72 hours
compound,measurement,setting,value
CCc1ncnc(NCc2cnn(-c3ccccc3)c2C)c1Cl [CK1],inhibition at 2.8 ppm,rice blast,0%
same,inhibition at 8.3 ppm,rice blast,0%
same,inhibition at 25 ppm,rice blast,0%
same,"Protective Activity (%), cucumber downy mildew",cucumber downy mildew; 25 mg/L,0%
same,"Protective Activity (%), cucumber downy mildew",cucumber downy mildew; 50 mg/L,20%
same,"Protective Activity (%), cucumber downy mildew",cucumber downy mildew; 100 mg/L,95%
same,"Protective Activity (%), cucumber downy mildew",cucumber downy mildew; 400 mg/L,100%
same,Lethality to Green Peach Aphid (%),green peach aphid,0%
CCc1ncnc(NCc2cnn(-c3ccccc3)c2C(F)(F)F)c1Cl [CK2],inhibition at 2.8 ppm,rice blast,0%
same,inhibition at 8.3 ppm,rice blast,0%
same,inhibition at 25 ppm,rice blast,0%
same,"Protective Activity (%), cucumber downy mildew",cucumber downy mildew; 25 mg/L,0%
same,"Protective Activity (%), cucumber downy mildew",cucumber downy mildew; 50 mg/L,20%
same,"Protective Activity (%), cucumber downy mildew",cucumber downy mildew; 100 mg/L,75%
same,"Protective Activity (%), cucumber downy mildew",cucumber downy mildew; 400 mg/L,100%
same,"Protective Activity (%), wheat powdery mildew",wheat powdery mildew; 6.25 mg/L,0%
same,"Protective Activity (%), wheat powdery mildew",wheat powdery mildew; 25 mg/L,20%
same,"Protective Activity (%), wheat powdery mildew",wheat powdery mildew; 100 mg/L,50%
same,"Protective Activity (%), wheat powdery mildew",wheat powdery mildew; 400 mg/L,100%
Cc1nc(C)c(C)c(N(C)Cc2cnn(-c3ccccc3)c2)n1 [CK3],inhibition at 2.8 ppm,rice blast,0%
same,inhibition at 8.3 ppm,rice blast,0%
same,inhibition at 25 ppm,rice blast,0%
same,"Protective Activity (%), cucumber downy mildew",cucumber downy mildew; 50 mg/L,0%
same,"Protective Activity (%), cucumber downy mildew",cucumber downy mildew; 100 mg/L,30%
same,"Protective Activity (%), cucumber downy mildew",cucumber downy mildew; 400 mg/L,100%
same,"Protective Activity (%), wheat powdery mildew",wheat powdery mildew; 400 mg/L,0%
same,"Protective Activity (%), corn rust",corn rust; 6.25 mg/L,0%
same,"Protective Activity (%), corn rust",corn rust; 25 mg/L,0%
same,"Protective Activity (%), corn rust",corn rust; 100 mg/L,20%
same,"Protective Activity (%), corn rust",corn rust; 400 mg/L,60%
same,protective effect for the melon anthrax / cucumber anthrax,cucumber anthrax,0%
same,Lethality to Green Peach Aphid (%),green peach aphid,30%
same,Lethality to Tetranychus Cinnabarinus (%),Tetranychus cinnabarinus,56%
Cc1cc(N(C)Cc2cnn(-c3ccccc3)c2)nc(C(C)C)n1 [CK4],inhibition at 2.8 ppm,rice blast,0%
same,inhibition at 8.3 ppm,rice blast,0%
same,inhibition at 25 ppm,rice blast,0%
same,"Protective Activity (%), cucumber downy mildew",cucumber downy mildew; 50 mg/L,0%
same,"Protective Activity (%), cucumber downy mildew",cucumber downy mildew; 100 mg/L,40%
same,"Protective Activity (%), cucumber downy mildew",cucumber downy mildew; 400 mg/L,100%
same,"Protective Activity (%), wheat powdery mildew",wheat powdery mildew; 400 mg/L,0%
same,"Protective Activity (%), corn rust",corn rust; 6.25 mg/L,0%
same,"Protective Activity (%), corn rust",corn rust; 25 mg/L,0%
same,"Protective Activity (%), corn rust",corn rust; 100 mg/L,0%
same,"Protective Activity (%), corn rust",corn rust; 400 mg/L,40%
same,protective effect for the melon anthrax / cucumber anthrax,cucumber anthrax,0%
same,Lethality to Green Peach Aphid (%),green peach aphid,0%
same,Lethality to Tetranychus Cinnabarinus (%),Tetranychus cinnabarinus,59%
Cc1nc(Cl)cc(N(C)Cc2c(C)nn(-c3ccccc3)c2C)n1 [CK5],inhibition at 2.8 ppm,rice blast,0%
same,inhibition at 8.3 ppm,rice blast,0%
same,inhibition at 25 ppm,rice blast,0%
same,"Protective Activity (%), cucumber downy mildew",cucumber downy mildew; 400 mg/L,85%
same,"Protective Activity (%), wheat powdery mildew",wheat powdery mildew; 400 mg/L,0%
same,"Protective Activity (%), corn rust",corn rust; 6.25 mg/L,20%
same,"Protective Activity (%), corn rust",corn rust; 25 mg/L,60%
same,"Protective Activity (%), corn rust",corn rust; 100 mg/L,70%
same,"Protective Activity (%), corn rust",corn rust; 400 mg/L,98%
same,protective effect for the melon anthrax / cucumber anthrax,cucumber anthrax,0%
same,Lethality to Green Peach Aphid (%),green peach aphid,22%
same,Lethality to Tetranychus Cinnabarinus (%),Tetranychus cinnabarinus,58%
Cc1ncnc(NCCOc2cc(-c3ccc(Cl)cc3Cl)n(C)n2)c1Cl [Compound 10-21],protective effect for the melon anthrax / cucumber anthrax,cucumber anthrax,100%
CCc1ncnc(NCCOc2nn(C)c(-c3ccc(Cl)cc3)c2C)c1Cl [Compound 11-1-19],protective effect for the melon anthrax / cucumber anthrax,cucumber anthrax,100%
Cc1c(OCCNc2ncnc(C(F)F)c2Cl)nn(C)c1-c1ccccc1 [Compound 12-1-1],protective effect for the melon anthrax / cucumber anthrax,cucumber anthrax,100%
Cc1c(OCCNc2ncnc(C(F)F)c2Cl)nn(C)c1-c1ccc(Cl)cc1 [Compound 12-1-19],protective effect for control of wheat powdery mildew,wheat powdery mildew; dose 6.25 ppm,more than 80%
same,protective effect for the melon anthrax / cucumber anthrax,cucumber anthrax,100%
Cc1c(OCCCNc2ncnc(C(F)F)c2Cl)nn(C)c1-c1ccccc1 [Compound 12-3-1],inhibition at 2.8 ppm,rice blast,> 80%
same,inhibition at 8.3 ppm,rice blast,> 80%
same,inhibition at 25 ppm,rice blast,> 80%
Cc1c(OCCNc2ncnc3ccccc23)nn(C)c1-c1ccc(F)cc1 [Compound 19-1-4],protective effect for the melon anthrax / cucumber anthrax,cucumber anthrax,100%
Cc1c(OCC(C)Nc2ncnc3ccccc23)nn(C)c1-c1ccccc1 (centres unmarked) [Compound 19-4-1],protective effect for the melon anthrax / cucumber anthrax,cucumber anthrax,100%
Cn1nc(OCCNc2ncnc3ccccc23)cc1-c1ccc(Br)cc1 [Compound 19-34],inhibition at 25 ppm,rice blast,> 80%
Cc1c(OCCNc2ncnc3scc(Cl)c23)nn(C)c1-c1ccc(F)cc1 [Compound 21-1-4],protective effect for the melon anthrax / cucumber anthrax,cucumber anthrax,100%
Cc1c(OCC(C)Nc2ncnc3scc(Cl)c23)nn(C)c1-c1ccccc1 (centres unmarked) [Compound 21-4-1],protective effect for the melon anthrax / cucumber anthrax,cucumber anthrax,100%
Cn1nc(OCCNc2ncnc3scc(Cl)c23)cc1-c1ccc(Cl)cc1Cl [Compound 21-21],protective effect for the melon anthrax / cucumber anthrax,cucumber anthrax,100%
CCc1ncnc(OCCOc2nn(C)c(-c3ccccc3)c2C)c1Cl [Compound 26-1-1],protective effect for the melon anthrax / cucumber anthrax,cucumber anthrax,100%
